The values that follow come from patent US5786145A, “Oligonucleotide competitors for binding of HIV RRE to REV protein and assays for screening inhibitors of this binding” (Medical Research Council, priority 1995, dated 1998).

Data set [1] has as its system rev protein. Put plainly: Saturation binding of rev protein to labelled RBC6 (FIG. 15). Set-up: species or system HIV-1. Conditions: 1.5 nM labelled RBC6, 0-50 nM rev; read-out: Kd from saturation binding, Scatchard plot. The protocol: (§1) Binding experiments were carried out using labelled RBC6 (SEQ ID NO:20 and SEQ ID NO:21) duplex formed frm the 5'-^32 P-labelled 14-mer oligoribonucleotide annealed to the 15 mer (0.6 nM) and 0-150 nM unlabelled RBC6 in the presence of 24 nM rev protein.
The mixtures for binding (0.5 ml) included 1.5 nM ^32 P-labelled RBC6 (SEQ ID NO:20 and SEQ ID NO:21) (ca. 20,000 cpm), varying concentrations (0-50 nM) of rev protein and 80 units/ml RNasin in TK buffer. The filter binding assays were carried out as described above, and the results were plotted on a graph (FIG. 15).

For data set [2], the system named is rev protein. Briefly: Competition filter binding against 32P-labelled R7 (FIGS. 13, 17). Set-up: species or system HIV-1. The following applies: 1.5 nM labelled R7, 24 nM rev, 0-60 nM competitor. As for the experimental part: In these experiments, uniformly ^32 P-labelled R7 (1.5 nM) was competed against 0-60 nM unlabelled competitor RNA in the presence of 24 nM rev protein.
The mixtures for competition binding (0.5 ml) included 1.5 nM ^32 P-labelled R7 (ca. 20,000 cpm), 24 nM rev protein, 1.5 ug/ml calf thymus DNA, 0.67 ug/ml yeast rRNA, varying concentrations (0-60 nM) of unlabelled competitor RNA and 80 units/ml RNasin in TK buffer (50 mM Tris-HCl (pH7.9) and 20 mM KCl). Binding was allowed to take place for more than 15 min on ice, and each mixture was passed through a Millipore GS filter (a 2.5 cm disk with a pore size of 0.22 um) prewashed twice with 0.6 ml of ice-cold TK buffer. The filter was washed with 0.6 ml of cold TK buffer and dried. The radioactivity retained on the filter was counted by liquid scintillation, and the results were plotted on a graph (FIG. 13).

Data set [3] deals with rev protein. Put plainly: Scatchard analysis of RBC6 binding to rev (FIG. 14). On the set-up: species or system HIV-1. The following applies: 0.6 nM labelled RBC6, 0-150 nM unlabelled RBC6, 24 nM rev; read-out: Kd (binding constant) from Scatchard plot. The protocol:
as §1
The mixtures for binding (0.5 ml) included 0.6 nM ^32 P-labelled RBC6 (SEQ ID NO:20 and SEQ ID NO:21) (ca. 20,000 cpm), 24 nM rev protein, varying concentrations (0-150 nM) of unlabelled RBC6 (SEQ ID NO:20 and SEQ ID NO:21) and 80 units/ml RNasin in TK buffer. The filter binding assays were carried out as described above, and a Scatchard plot (FIG. 14) was obtained from the results.

Data set [4] addresses HIV-1 Rev (Human immunodeficiency virus 1, UniProt P04618 P04618:1-116). Briefly: filter; 50 mM KCl, 4 C; 17% bound at 10 nM rev. The following applies: tags: none stated; heparin-Sepharose and Superose 6 purified; chain copies: oligomer (tetramer likely; about 4 per RBC6, 6-8 per full-length RRE at 50 mM KCl) stated; label: 32P uniform.

HIV-1 Rev, sequence (P04618 whole entry, one chain of several): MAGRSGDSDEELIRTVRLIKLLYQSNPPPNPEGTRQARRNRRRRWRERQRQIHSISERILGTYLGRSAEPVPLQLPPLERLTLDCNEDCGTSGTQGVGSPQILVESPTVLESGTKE

In the case of “RBC6: chemically synthesized RNA duplex (14-mer annealed to 15-mer), bubble with six base pairs on each side (chain 1 CGUGUGGGCGCAGC; chain 2 GCUGCGGUACACACG; RNA, backbone not given here)”, the Kd in data set [1] is 3.8 nM; in data set [3], about 3 nM. Also, in data set [2], the “competition for rev binding against labelled R7, result in words” value is given as “competed about half as well as R7”.

B1: R54 (ssRNA)
RNA: GGGAGACCGGAAUUCCGGGCGCAGUGUCAUUGACGCUGCGGUACGGAAUUCCGGCA
modifications: [-]
As for B1, the Kd in data set [4] was 6 nM.
